This test addresses T1, Dipeptidyl Peptidase-IV (DPP-IV) (Homo sapiens, UniProt P27487).
T1 construct: made in house
As to the kind of experiment: Measurement of DPP-IV Activity-Inhibiting Ability (fluorescent substrate Ac-Gly-Pro-AFC). The settings on record: 25° C., 50 mmol HEPES (pH 7.4), DP-IV 7.1 nM, enzyme reaction for 1 hour. The test is classed as biochemical. From the text:
Dipeptidyl Peptidase-IV (DPP-IV), known as serine protease, was obtained by a modification of the known method (Tanaka T. et al, Proc. Natl. Acad. Sci. USA, (1994) 91, 3082-3086), which comprises cloning, purification by use of Baculo-Virus and activation steps. DPP-IV was used to test the pharmaceutical efficacy of candidate inhibitors as follows. The cloned DP-IV was expressed in Baculo-Virus, which was purified by nickel column and then subjected to dialysis. The inhibitors synthesized in Examples were tested to determine the binding activity there of using a fluorescent substrate, Ac-Gly-Pro-AFC. Enzyme reactions were conducted for various concentrations of inhibitors, using 100 µM Ac-Gly-Pro-AFC at 25° C. in a buffer solution containing 50 mmol HEPES (pH 7.4), with the concentration of DP-IV being 7.1 nM. […] As the fluorescent spectrometer, Spectra MAX GeminiXS fluorescent spectrometer from Molecular Device Co. was used and the excitation frequency and emission frequency were set to 400 nm and 505 nm, respectively.
T1 sequence (P27487 whole entry): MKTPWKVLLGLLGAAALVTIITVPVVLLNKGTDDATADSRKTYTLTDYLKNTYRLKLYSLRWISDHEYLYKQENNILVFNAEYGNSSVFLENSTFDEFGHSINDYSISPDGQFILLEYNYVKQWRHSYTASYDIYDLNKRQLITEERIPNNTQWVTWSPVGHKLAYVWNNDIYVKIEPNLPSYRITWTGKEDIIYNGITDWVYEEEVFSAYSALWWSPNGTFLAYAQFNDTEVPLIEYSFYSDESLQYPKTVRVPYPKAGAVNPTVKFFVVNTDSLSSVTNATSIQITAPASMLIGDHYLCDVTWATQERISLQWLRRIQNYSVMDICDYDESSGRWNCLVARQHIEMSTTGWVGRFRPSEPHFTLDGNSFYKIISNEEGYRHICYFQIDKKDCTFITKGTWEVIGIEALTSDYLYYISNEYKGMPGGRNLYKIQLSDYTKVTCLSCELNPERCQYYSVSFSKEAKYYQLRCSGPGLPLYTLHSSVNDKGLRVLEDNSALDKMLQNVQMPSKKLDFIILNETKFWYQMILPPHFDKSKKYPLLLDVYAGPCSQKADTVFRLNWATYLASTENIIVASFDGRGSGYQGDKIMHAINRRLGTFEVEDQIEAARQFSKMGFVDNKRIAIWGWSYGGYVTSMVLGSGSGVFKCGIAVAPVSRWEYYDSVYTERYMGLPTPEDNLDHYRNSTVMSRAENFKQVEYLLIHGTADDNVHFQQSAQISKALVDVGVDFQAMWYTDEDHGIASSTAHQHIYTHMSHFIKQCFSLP
As usually defined, the IC50 is the point on the concentration scale where inhibition reaches its midpoint. Turning to `C[C@H]1CN(C[C@@H](N)CC(=O)N2CCc3sc(-c4ccc(F)cc4)nc3C2)C(=O)CO1` [Ex. 45, (6S)-4-{(2S)-2-amino-4-oxo-4-[2-(4-fluorophenyl)6,7-dihydro[1,3]thiazolo[4,5,c]pyridin-5(4H)-yl]butyl}-6-methylmorpholine-3-one], the IC50 is 22 nM. For the molecule `N[C@@H](CC(=O)N1CCc2sc(-c3ccc(F)cc3)nc2C1)CN1CC(F)(F)CCC1=O` [Ex. 46, 1-{(2S)-2-amino-4-[2-(4-fluorophenyl)-6,7-dihydro[1,3]thiazolo[4,5,c]pyridin-5(4H)-yl]-4-oxobutyl}-5,5-difluoropiperidin-2-one], the IC50 is 22 nM. Regarding `C[C@@H]1CCC(=O)N(C[C@@H](N)CC(=O)N2CCc3sc(C4CCOCC4)nc3C2)C1` [Ex. 47, (5R)-1-{(2S)-2-amino-4-oxo-4-[2-(tetrahydro-2H-pyran-4-yl)-6,7-dihydro[1,3]thiazolo[4,5,c]pyridin-5(4H)-yl]butyl}-5-methylpiperidin-2-one], the IC50 was 279 nM. Take `C[C@H]1CN(C[C@@H](N)CC(=O)N2CCc3sc(C4CCOCC4)nc3C2)C(=O)CO1` [Ex. 48, (6S)-4-{(2R)-2-amino-4-oxo-4-[2-(tetrahydro-2H-pyran-4-yl)-6,7-dihydro[1,3]thiazolo[4,5,c]pyridin-5(4H)-yl]butyl}-6-methylmorpholine-3-one]: inhibition was half-maximal at 357 nM (IC50). To `N[C@@H](CC(=O)N1CCc2sc(C3CCOCC3)nc2C1)CN1CC(F)(F)CCC1=O` [Ex. 49, 1-{(2S)-2-amino-4-oxo-4-[2-(tetrahydro-2H-pyran-4-yl)-6,7-dihydro[1,3]thiazolo[4,5, c]pyridin-5(4H)-yl]butyl}-5,5-difluoropiperidin-2-one] belongs 236 nM; to `C[C@H]1CN(C[C@@H](N)CC(=O)N2CCc3sc(C(F)(F)F)nc3C2)C(=O)CO1` [Ex. 50, (6S)-4-{(2S)-2-amino-4-oxo-4-[2-(trifluoromethyl)-6,7-dihydro[1,3]thiazolo[4,5,c]pyridin-5(4H)-yl]butyl}-6-methylmorpholine-3-one], 422 nM; to `N[C@@H](CC(=O)N1CCc2sc(C(F)(F)F)nc2C1)CN1CC(F)(F)CCC1=O` [Ex. 51, 1-{(2S)-2-amino-4-oxo-4-[2-(trifluoromethyl)-6,7-dihydro[1,3]thiazolo[4,5,c]pyridin-5(4H)-yl]butyl}-5,5-difluoropiperidin-2-one], 114 nM.

Turning to `COCCc1nc2c(c(C(F)(F)F)n1)CCN(C(=O)C[C@H](N)CN1C[C@H](C)CCC1=O)C2` [Ex. 52, (5R)-1-{(2S)-2-amino-4-[2-(2-methoxyethyl)-4-(trifluoromethyl)-5,8-dihydropyrido[3,4-d]pyrimidin-7(6H)-yl]-4-oxobutyl}-5-methylpiperidin-2-one], 18 nM corresponded to half-maximal inhibition (IC50). `COCCc1nc2c(c(C(F)(F)F)n1)CCN(C(=O)C[C@H](N)CN1CC(F)(F)CCC1=O)C2` [Ex. 53, 1-{(2S)-2-amino-4-[2-(2-methoxyethyl)-4-(trifluoromethyl)-5,8-dihydropyrido[3,4-d]pyrimidin-7(6H)-yl]-4-oxobutyl}-5,5-difluoropiperidin-2-one] registered an IC50 of 26 nM.

Molecule `C[C@@H]1CCC(=O)N(C[C@@H](N)CC(=O)N2CCc3c(nc(CC4CC4)nc3C(F)(F)F)C2)C1` [Ex. 54, (5R)-1-{(2S)-2-amino-4-[2-(cyclopropylmethyl)-4-(trifluoromethyl)-5,8-dihydropyrido[3,4-d]pyrimidin-7(6H)-yl]-4-oxobutyl}-5-methylpiperidin-2-one] had an IC50 of 30 nM. As to `N[C@@H](CC(=O)N1CCc2c(nc(CC3CC3)nc2C(F)(F)F)C1)CN1CC(F)(F)CCC1=O` [Ex. 55, 1-{(2S)-2-amino-4-[2-(cyclopropylmethyl)-4-(trifluoromethyl)-5,8-dihydropyrido[3,4-d]pyrimidin-7(6H)-yl]-4-oxobutyl}-5,5-difluoropiperidin-2-one], the IC50 was found to be 20 nM.

Take `C[C@@H]1CCC(=O)N(C[C@@H](N)CC(=O)N2CCc3c(nc(-c4ccncc4)nc3C(F)(F)F)C2)C1` [Ex. 56, (5R)-1-{(2S)-2-amino-4-oxo-4-[2-pyridin-4-yl-4-(trifluoromethyl)-5,8-dihydropyrido[3,4-d]pyrimidin-7(6H)-yl]butyl}-5-methylpiperidin-2-one]: half-maximal inhibition (IC50) was put at 11 nM. `N[C@@H](CC(=O)N1CCc2c(nc(-c3ccncc3)nc2C(F)(F)F)C1)CN1CC(F)(F)CCC1=O` [Ex. 57, 1-{(2S)-2-amino-4-oxo-4-[2-pyridin-4-yl-4-(trifluoromethyl)-5,8-dihydropyrido[3,4-d]pyrimidin-7(6H)-yl]butyl}-5,5-difluoropiperidin-2-one] yielded a half-maximal inhibitory concentration (IC50) of 48 nM. Against the preceding molecule, the IC50 is about 4.4-fold higher. On to `C[C@@H]1CCC(=O)N(C[C@@H](N)CC(=O)N2CCc3c(nc(Cc4ccc(F)cc4)nc3C(F)(F)F)C2)C1` [Ex. 58, (5R)-1-{(2S)-2-amino-4-[2-(4-fluorobenzyl)-4-(trifluoromethyl)-5,8-dihydropyrido[3,4-d]pyrimidin-7(6H)-yl]-4-oxobutyl}-5-methylpiperidin-2-one], for which half-maximal inhibition (IC50) required 14 nM. The molecule `N[C@@H](CC(=O)N1CCc2c(nc(Cc3ccc(F)cc3)nc2C(F)(F)F)C1)CN1CC(F)(F)CCC1=O` [Ex. 59, 1-{(2S)-2-amino-4-[2-(4-fluorobenzyl)-4-(trifluoromethyl)-5,8-dihydropyrido[3,4-d]pyrimidin-7(6H)-yl]-4-oxobutyl}-5,5-difluoropiperidin-2-one] had a 50% inhibitory concentration (IC50) of 36 nM.

As for `C[C@@H]1CCC(=O)N(C[C@@H](N)CC(=O)N2CCc3c(nc(-c4ccsc4)nc3C(F)(F)F)C2)C1` [Ex. 60, (5R)-1-{(2S)-2-amino-4-oxo-4-[2-(3-thienyl)-4-(trifluoromethyl)-5,8-dihydropyrido[3,4-d]pyrimidin-7(6H)-yl]butyl}-5-methylpiperidin-2-one], the half-inhibitory concentration (IC50) stood at 61 nM. Regarding `N[C@@H](CC(=O)N1CCc2c(nc(-c3ccsc3)nc2C(F)(F)F)C1)CN1CC(F)(F)CCC1=O` [Ex. 61, 1-{(2S)-2-amino-4-oxo-4-[2-(3-thienyl)-4-(trifluoromethyl)-5,8-dihydropyrido[3,4-d]pyrimidin-7(6H)-yl]butyl}-5,5-difluoropiperidin-2-one], half-maximal inhibition (IC50) required 55 nM. Turning to `C[C@@H]1CCC(=O)N(C[C@@H](N)CC(=O)N2CCc3c(nc(-c4cccs4)nc3C(F)(F)F)C2)C1` [Ex. 62, (5R)-1-{(2S)-2-amino-4-oxo-4-[2-(2-thienyl)-4-(trifluoromethyl)-5,8-dihydropyrido[3,4-d]pyrimidin-7(6H)-yl]butyl}-5-methylpiperidin-2-one], the half-maximal inhibitory concentration (IC50) turned out to be 32 nM. Take `N[C@@H](CC(=O)N1CCc2c(nc(-c3cccs3)nc2C(F)(F)F)C1)CN1CC(F)(F)CCC1=O` [Ex. 63, 1-{(2S)-2-amino-4-oxo-4-[2-(2-thienyl)-4-(trifluoromethyl)-5,8-dihydropyrido[3,4-d]pyrimidin-7(6H)-yl]butyl}-5,5-difluoropiperidin-2-one]: the IC50 stood at 35 nM. To `C[C@@H]1CCC(=O)N(C[C@@H](N)CC(=O)N2CCc3c(nc(-c4ccco4)nc3C(F)(F)F)C2)C1` [Ex. 64, (5R)-1-{(2S)-2-amino-4-[2-(2-furyl)-4-(trifluoromethyl)-5,8-dihydropyrido[3,4-d]pyrimidin-7(6H)-yl]-4-oxobutyl}-5-methylpiperidin-2-one] belongs 5 nM. To `N[C@@H](CC(=O)N1CCc2c(nc(-c3ccco3)nc2C(F)(F)F)C1)CN1CC(F)(F)CCC1=O` [Ex. 65, 1-{(2S)-2-amino-4-[2-(2-furyl)-4-(trifluoromethyl)-5,8-dihydropyrido[3,4-d]pyrimidin-7(6H)-yl]-4-oxobutyl}-5,5-difluoropiperidin-2-one] belongs 12 nM; to `C[C@@H]1CCC(=O)N(C[C@@H](N)CC(=O)N2CCc3c(nc(-c4ccoc4)nc3C(F)(F)F)C2)C1` [Ex. 66, (5R)-1-{(2S)-2-amino-4-[2-(3-furyl)-4-(trifluoromethyl)-5,8-dihydropyrido[3,4-d]pyrimidin-7(6H)-yl]-4-oxobutyl}-5-methylpiperidin-2-one], 16 nM. On to `N[C@@H](CC(=O)N1CCc2c(nc(-c3ccoc3)nc2C(F)(F)F)C1)CN1CC(F)(F)CCC1=O` [Ex. 67, 1-{(2S)-2-amino-4-[2-(3-furyl)-4-(trifluoromethyl)-5,8-dihydropyrido[3,4-d]pyrimidin-7(6H)-yl]-4-oxobutyl}-5,5-difluoropiperidin-2-one], for which the half-inhibitory concentration (IC50) stood at 10 nM. As for `C[C@@H]1CCC(=O)N(C[C@@H](N)CC(=O)N2CCc3c(nc(-c4ccc[nH]4)nc3C(F)(F)F)C2)C1` [Ex. 68, (5R)-1-{(2S)-2-amino-4-oxo-4-[2-(1H-pyrrol-2-yl)-4-(trifluoromethyl)-5,8-dihydropyrido[3,4-d]pyrimidin-7(6H)-yl]butyl}-5-methylpiperidin-2-one], the IC50 worked out at 72 nM. As for `N[C@@H](CC(=O)N1CCc2c(nc(-c3ccc[nH]3)nc2C(F)(F)F)C1)CN1CC(F)(F)CCC1=O` [Ex. 69, 1-{(2S)-2-amino-4-oxo-4-[2-(1H-pyrrol-2-yl)-4-(trifluoromethyl)-5,8-dihydropyrido[3,4-d]pyrimidin-7(6H)-yl]butyl}-5,5-difluoropiperidin-2-one], half-maximal inhibition (IC50) required 55 nM. In the case of `C[C@@H]1CCC(=O)N(C[C@@H](N)CC(=O)N2CCc3c(nc(-c4cccnc4)nc3C(F)(F)F)C2)C1` [Ex. 70, (5R)-1-{(2S)-2-amino-4-oxo-4-[2-pyridin-3-yl-4-(trifluoromethyl)-5,8-dihydropyrido[3,4-d]pyrimidin-7(6H)-yl]butyl}-5-methylpiperidin-2-one], the IC50 stood at 8 nM.

The values above are taken from patent US7879848B2, “Dipeptidyl Peptidase-IV inhibiting compounds, method of preparing the same, and pharmaceutical compositions containing the same as an active agent” (LG Life Sciences, Ltd., priority 2005, dated 2011).
